For eleven compounds, average particle size results are on record in patent US7507813B2, “Amorphous cefuroxime axetil and preparation process therefore” (Nanomaterials Technology Pte Ltd., priority 2004, dated 2009).

A short description of this series: Particle size of the cefuroxime axetil particles (SEM images). The settings on record: amorphous particles from antisolvent precipitation. The class given is physicochemical.
For the compound `CO/N=C(\C(=O)N[C@@H]1C(=O)N2C(C(=O)OC(C)OC(C)=O)=C(COC(N)=O)CS[C@H]12)c1ccco1` (some centres unmarked) [Example 8, cefuroxime axetil], the average particle size entry is “about 2 μm”.
As for `CO/N=C(\C(=O)N[C@@H]1C(=O)N2C(C(=O)OC(C)OC(C)=O)=C(COC(N)=O)CS[C@H]12)c1ccco1` (some centres unmarked) [Example 6, cefuroxime axetil], the entry is “about 1 μm”; as for `CO/N=C(\C(=O)N[C@@H]1C(=O)N2C(C(=O)OC(C)OC(C)=O)=C(COC(N)=O)CS[C@H]12)c1ccco1` (some centres unmarked) [Example 10, cefuroxime axetil], “about 600 nm”; as for `CO/N=C(\C(=O)N[C@@H]1C(=O)N2C(C(=O)OC(C)OC(C)=O)=C(COC(N)=O)CS[C@H]12)c1ccco1` (some centres unmarked) [Example 5, cefuroxime axetil], “about 200 nm”.
The entry for `CO/N=C(\C(=O)N[C@@H]1C(=O)N2C(C(=O)OC(C)OC(C)=O)=C(COC(N)=O)CS[C@H]12)c1ccco1` (some centres unmarked) [Example 9, cefuroxime axetil] is “about 500 nm”; for `CO/N=C(\C(=O)N[C@@H]1C(=O)N2C(C(=O)OC(C)OC(C)=O)=C(COC(N)=O)CS[C@H]12)c1ccco1` (some centres unmarked) [Example 7, cefuroxime axetil] it is “about 500 nm”.
For the compound `CO/N=C(\C(=O)N[C@@H]1C(=O)N2C(C(=O)OC(C)OC(C)=O)=C(COC(N)=O)CS[C@H]12)c1ccco1` (some centres unmarked) [Example 3, cefuroxime axetil], the average particle size result is on record as “about 1 μm”.
With `CO/N=C(\C(=O)N[C@@H]1C(=O)N2C(C(=O)OC(C)OC(C)=O)=C(COC(N)=O)CS[C@H]12)c1ccco1` (some centres unmarked) [Example 2, cefuroxime axetil], the average particle size result is recorded as “about 600 nm”.
As for `CO/N=C(\C(=O)N[C@@H]1C(=O)N2C(C(=O)OC(C)OC(C)=O)=C(COC(N)=O)CS[C@H]12)c1ccco1` (some centres unmarked) [Example 1, cefuroxime axetil], the entry is “about 500 nm”; as for `CO/N=C(\C(=O)N[C@@H]1C(=O)N2C(C(=O)OC(C)OC(C)=O)=C(COC(N)=O)CS[C@H]12)c1ccco1` (some centres unmarked) [Example 11, cefuroxime axetil], “about 1 μm”.
`CO/N=C(\C(=O)N[C@@H]1C(=O)N2C(C(=O)OC(C)OC(C)=O)=C(COC(N)=O)CS[C@H]12)c1ccco1` (some centres unmarked) [Example 4, cefuroxime axetil]: the average particle size result is on record as “about 400 nm”.
